The source of these data is ChEMBL document CHEMBL1201862, “PubChem BioAssay data set” (2004).

Assay [1] is described as follows: inhibition of Env-driven cell fusion – HIV entry, plate reader, dry powder, dose response (AID 687023). It is filed as functional, cell-based.
For assay [2], the target named is T1, Fibrinogen beta chain (Homo sapiens, UniProt P02675). Nature of the assay: Fluorescence polarization-based biochemical high throughput dose response assay to identify inhibitors that disrupt the binding of a cyclic peptide (Tn6) to the fibrin proteolytic product D-Dimer and fragment E complex [DD(E )].
Assay [3] has as its target T2, Polyadenylate-binding protein 1 (Homo sapiens, UniProt P11940). Nature of the assay: MLLE domain peptide-binding blockers, IC50 – biochemical, fluorescence polarization, FITC-PAM2 peptide, dose response (AID 602259). Format: functional. Particulars: read-out: IC50_Mean.
Assay [4] concerns the target Peroxisome proliferator-activated receptor gamma/Nuclear receptor coactivator 2 (Homo sapiens, UniProt P37231). Nature of the assay: TR-FRET dose response biochemical High Throughput Screening assay for agonists of the steroid receptor coactivator 2 (SRC-2) recruitment by the peroxisome proliferator-activated receptor gamma (PPAR gamma): non-selective agonists. [Related pubchem assays: 1297, 1032 ]. Format: functional.

The target of assay [5] is T1, Fibrinogen beta chain. Nature of the assay: Fluorescence polarization-based biochemical high throughput dose response assay to identify inhibitors that disrupt the binding of a cyclic peptide (Tn7) to the fibrin proteolytic product D-Dimer and fragment E complex [DD(E )].
Assay [6] concerns the target Peroxisome proliferator-activated receptor gamma/Nuclear receptor coactivator 3 (Homo sapiens, UniProt P37231). Nature of the assay: TR-FRET dose response biochemical High Throughput Screening assay for agonists of the steroid receptor coactivator 3 (SRC-3) recruitment by the peroxisome proliferator-activated receptor gamma (PPAR gamma): non-selective agonists. [Related pubchem assays: 1301 (Confirmation screen.), 1048 (Primary screen.)]. It is filed as functional.

Assay [7] addresses Peroxisome proliferator-activated receptor gamma/Nuclear receptor coactivator 1 (Homo sapiens, UniProt P37231). Nature of the assay: TR-FRET dose response biochemical High Throughput Screening assay for agonists of the steroid receptor coactivator 1 (SRC-1) recruitment by the peroxisome proliferator-activated receptor gamma (PPAR gamma): non-selective agonists. [Related pubchem assays (depositor defined):AID1300, AID1808, AID504735, AID631]. It is filed as protein assay.

Assay [8] concerns the target T2, Polyadenylate-binding protein 1. Nature of the assay: MLLE binding blockers, Cy5 peptide tracer – biochemical, fluorescence polarization, Cy5-PAM2 peptide, secondary, miRNA deadenylation inhibitor project, dose response (AID 602260). It is filed as functional. Conditions: read-out: IC50_Mean.
Assay [9] has as its system BJ. Nature of the assay: BJ-TERT fibroblast viability loss – cell-based, RAS-independent, luminescence, dose response (AID 1933). It is filed as functional. Conditions: Homo sapiens.
The nature of assay [10]: alpha-synuclein stem-loop luciferase translation blockers – H4 neuroglioma cells, luminescence, confirmation (AID 1988). Format: functional, cell-based.
Assay [11] can be described thus: DRD fibroblast viability loss – cell-based, non-viral oncogenic, luminescence, dose response (AID 1934). It is filed as functional. Particulars: Homo sapiens.
Assay [12] can be described thus: luciferase reporter signal suppression in cells – H4 neuroglioma cells, luminescence, dose response (AID 1990). Format: functional, cell-based.
The test system of assay [13] is BJ. Nature of the assay: cells. It is filed as functional, cell-based. Conditions: Homo sapiens.
Assay [14] is described as follows: Luminescence Cell-Based Dose Response HTS to Identify Inhibitors of 5'UTR Stem-Loop Driven Prion Protein mRNA Translation in H4 Neuroglioblastoma Cells. [Related pubchem assays: 1827 (Project Summary), 1813 (Primary HTS)]. It is filed as functional.
Assay [15] is described as follows: Trypanosoma cruzi growth suppression in host cells – NIH3T3 host cells, beta-gal luminescence, confirmation (AID 2044).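 Also: intracellular parasites grown in NIH/3T3 mouse fibroblasts as host cells; luminescent beta-galactosidase reporter signal from transgenic T. cruzi replicating inside host cells; inhibitors lower the luminescence signal.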 Format: functional, cell-based.
Assay [16] relates to BJ. Nature of the assay: BJ-TERT-LT-ST fibroblast viability loss – cell-based, RAS-independent, luminescence, dose response (AID 1935).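 Also: BJ fibroblasts immortalized with TERT plus LT and ST oncogenes.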 Conditions: Homo sapiens. Format: functional.
Assay [17] can be described thus: toxicity toward HEK293 cells – cell-based, dry powder samples, cytotoxicity control, dose response (AID 720567). It is filed as functional.
Assay [18] is described as follows: P. falciparum Dd2 growth inhibitors, dose response, SYBR Green, cherry-picked samples (AID 1159567). Format: functional, cell-based.
A short description of assay [19]: toxicity to human hepatoma HepG2 cells – cell-based, cherry-picked samples, cytotoxicity control, dose response (AID 1159577). Format: functional.
A short description of assay [20]: growth inhibition of PfATP4-mutant resistant parasites – NITD609-resistant line, SYBR Green, dry powder, dose response (AID 1159571).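 Also: parasites synchronized at ring stage by sorbitol before testing.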 It is filed as functional, cell-based.
A short description of assay [21]: Dd2 malaria parasite growth inhibition potency – SYBR Green, dry powder samples, dose response (AID 1159566).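 Also: potency for growth inhibition with lower SYBR green DNA signal.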 Format: functional, cell-based.
The nature of assay [22]: growth inhibition of yeast DHODH-expressing 3D7 parasites – SYBR Green, dry powder samples, dose response (AID 1159570).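 Also: parasite growth measured after 72 hours of compound exposure.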 It is filed as functional, cell-based.
A short description of assay [23]: Dd2 parasite growth inhibition in erythrocytes – SYBR Green, dry powder samples, set 4, dose response (AID 1159572). Format: functional, cell-based.
The nature of assay [24]: toxicity to human HepG2 hepatoma cells – cell-based, plate reader, dry powder samples, cytotoxicity control, dose response (AID 1159569).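 Also: inhibitor potency with signal falling toward the positive control level.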 It is filed as functional.
The target of assay [25] is NAD-dependent protein deacylase sirtuin-5, mitochondrial (Homo sapiens, UniProt Q9NXA8). Nature of the assay: sirtuin-5 deacylation blockers, concentration series – biochemical, fluorescence imaging, cherry-pick, set 5, dose response (AID 720591).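 Also: desuccinylation of succinyl peptide AMC substrate read as fluorescence after trypsin release; potency of inhibitors that lower fluorescence and may act on trypsin instead.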
The target in assay [26] is T3, Alkaline phosphatase, tissue-nonspecific isozyme (Homo sapiens, UniProt P05186).
T3 sequence (P05186 whole entry): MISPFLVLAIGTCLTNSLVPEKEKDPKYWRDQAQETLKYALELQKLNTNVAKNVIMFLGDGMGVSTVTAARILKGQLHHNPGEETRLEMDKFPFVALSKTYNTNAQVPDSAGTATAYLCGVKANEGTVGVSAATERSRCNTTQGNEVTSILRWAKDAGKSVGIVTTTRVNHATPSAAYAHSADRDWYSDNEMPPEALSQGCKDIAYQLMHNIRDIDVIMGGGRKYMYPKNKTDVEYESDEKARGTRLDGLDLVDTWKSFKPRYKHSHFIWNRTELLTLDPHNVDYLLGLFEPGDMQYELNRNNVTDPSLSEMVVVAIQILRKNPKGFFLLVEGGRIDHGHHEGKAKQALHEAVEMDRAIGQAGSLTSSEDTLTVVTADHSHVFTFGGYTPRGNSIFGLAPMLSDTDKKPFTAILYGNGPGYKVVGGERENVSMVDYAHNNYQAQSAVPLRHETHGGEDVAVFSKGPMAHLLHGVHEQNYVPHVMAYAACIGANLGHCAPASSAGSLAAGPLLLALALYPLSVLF
Nature of the assay: potency against alkaline phosphatase TNAP – biochemical, luminescent, dose response, SAR follow-up (AID 1056).

Assay [27] addresses Luciferin 4-monooxygenase (Photinus pyralis, UniProt P08659). Nature of the assay: inhibition of purified Photinus pyralis luciferase – biochemical, luminescence, dose response (AID 1891).
Assay [28] deals with Alkaline phosphatase, placental type (Homo sapiens, UniProt P05187). Nature of the assay: human placental alkaline phosphatase inhibition – biochemical, luminescence, confirmation (AID 1512). Format: functional.
A short description of assay [29]: Luminescence Cell-Based Dose Confirmation HTS to Identify Inhibitors of Platelet Dense Granule Release. [Related pubchem assays: 1663 (Primary HTS), 1678 (Summary of Project)]. Format: functional.
Assay [30] addresses Oxysterols receptor LXR-beta (Homo sapiens, UniProt P55055). Format: functional, cell-based.

Molecules are shown by their SMILES. Calls of active or inactive are those of the source.

T1 sequence (P02675 whole entry, the tested form may be a part): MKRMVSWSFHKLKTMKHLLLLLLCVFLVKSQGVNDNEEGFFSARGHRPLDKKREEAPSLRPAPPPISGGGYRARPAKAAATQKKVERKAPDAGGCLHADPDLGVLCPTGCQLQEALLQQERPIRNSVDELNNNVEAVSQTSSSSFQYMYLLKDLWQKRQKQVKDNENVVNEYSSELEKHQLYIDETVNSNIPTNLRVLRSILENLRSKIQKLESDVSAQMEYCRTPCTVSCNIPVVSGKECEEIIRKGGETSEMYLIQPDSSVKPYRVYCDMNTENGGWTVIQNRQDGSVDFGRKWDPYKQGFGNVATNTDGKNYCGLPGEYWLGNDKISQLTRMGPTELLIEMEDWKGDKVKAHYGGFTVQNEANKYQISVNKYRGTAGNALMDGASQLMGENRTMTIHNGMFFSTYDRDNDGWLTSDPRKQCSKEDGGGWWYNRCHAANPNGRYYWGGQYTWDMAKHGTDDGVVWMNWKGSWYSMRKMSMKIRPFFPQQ
T2 sequence (P11940 whole entry, the tested form may be a part): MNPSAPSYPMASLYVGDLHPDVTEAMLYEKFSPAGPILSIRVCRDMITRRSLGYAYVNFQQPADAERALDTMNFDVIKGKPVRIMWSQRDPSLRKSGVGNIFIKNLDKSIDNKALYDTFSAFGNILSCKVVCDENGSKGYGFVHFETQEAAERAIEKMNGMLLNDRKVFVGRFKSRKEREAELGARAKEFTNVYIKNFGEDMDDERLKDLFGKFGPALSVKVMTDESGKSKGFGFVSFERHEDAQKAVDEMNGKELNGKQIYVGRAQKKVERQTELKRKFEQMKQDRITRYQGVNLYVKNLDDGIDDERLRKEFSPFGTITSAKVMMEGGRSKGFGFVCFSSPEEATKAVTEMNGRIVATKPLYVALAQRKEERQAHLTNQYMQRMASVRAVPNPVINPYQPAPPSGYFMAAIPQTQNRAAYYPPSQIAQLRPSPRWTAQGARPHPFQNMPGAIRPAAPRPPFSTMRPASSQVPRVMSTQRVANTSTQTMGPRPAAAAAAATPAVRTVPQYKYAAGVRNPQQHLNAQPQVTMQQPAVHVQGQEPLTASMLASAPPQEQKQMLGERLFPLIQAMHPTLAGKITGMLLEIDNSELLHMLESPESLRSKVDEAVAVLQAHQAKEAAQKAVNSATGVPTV
Sequence of Alkaline phosphatase, placental type (P05187 whole entry): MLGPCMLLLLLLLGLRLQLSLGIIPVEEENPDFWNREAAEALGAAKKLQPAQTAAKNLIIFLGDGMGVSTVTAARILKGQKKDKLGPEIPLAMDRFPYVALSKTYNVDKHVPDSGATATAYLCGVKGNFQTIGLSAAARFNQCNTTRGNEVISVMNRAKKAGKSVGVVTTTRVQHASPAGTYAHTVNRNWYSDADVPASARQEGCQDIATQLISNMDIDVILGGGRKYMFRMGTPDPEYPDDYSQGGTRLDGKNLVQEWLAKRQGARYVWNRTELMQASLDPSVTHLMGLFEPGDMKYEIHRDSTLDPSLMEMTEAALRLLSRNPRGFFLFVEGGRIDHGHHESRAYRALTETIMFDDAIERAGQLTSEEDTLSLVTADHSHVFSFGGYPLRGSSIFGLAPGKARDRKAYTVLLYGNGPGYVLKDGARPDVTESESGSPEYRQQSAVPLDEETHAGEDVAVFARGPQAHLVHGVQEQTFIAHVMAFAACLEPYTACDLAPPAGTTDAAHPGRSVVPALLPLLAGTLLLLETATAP
Sequence of Oxysterols receptor LXR-beta (P55055 whole entry): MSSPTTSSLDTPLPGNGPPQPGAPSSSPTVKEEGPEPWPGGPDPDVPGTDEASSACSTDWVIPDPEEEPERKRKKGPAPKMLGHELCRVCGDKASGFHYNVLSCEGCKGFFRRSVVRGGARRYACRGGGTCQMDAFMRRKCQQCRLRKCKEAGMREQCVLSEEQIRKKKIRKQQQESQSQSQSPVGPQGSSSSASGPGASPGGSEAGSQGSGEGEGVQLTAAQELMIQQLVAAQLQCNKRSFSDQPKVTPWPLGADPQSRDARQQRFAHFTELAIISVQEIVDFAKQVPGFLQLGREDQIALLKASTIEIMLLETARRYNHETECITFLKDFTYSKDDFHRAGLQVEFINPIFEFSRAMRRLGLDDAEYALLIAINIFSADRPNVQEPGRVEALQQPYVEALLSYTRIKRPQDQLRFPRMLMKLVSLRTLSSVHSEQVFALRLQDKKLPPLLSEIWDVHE
Sequence of NAD-dependent protein deacylase sirtuin-5, mitochondrial (Q9NXA8 whole entry): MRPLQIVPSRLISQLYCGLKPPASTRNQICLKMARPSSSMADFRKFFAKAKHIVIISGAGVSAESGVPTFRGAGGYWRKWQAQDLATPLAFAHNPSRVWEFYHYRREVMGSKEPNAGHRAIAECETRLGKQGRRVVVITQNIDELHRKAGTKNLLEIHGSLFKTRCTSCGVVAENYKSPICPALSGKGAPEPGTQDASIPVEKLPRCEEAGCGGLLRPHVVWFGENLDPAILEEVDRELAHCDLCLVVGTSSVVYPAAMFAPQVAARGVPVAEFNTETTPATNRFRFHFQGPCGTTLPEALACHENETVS
Sequence of Luciferin 4-monooxygenase (P08659 whole entry): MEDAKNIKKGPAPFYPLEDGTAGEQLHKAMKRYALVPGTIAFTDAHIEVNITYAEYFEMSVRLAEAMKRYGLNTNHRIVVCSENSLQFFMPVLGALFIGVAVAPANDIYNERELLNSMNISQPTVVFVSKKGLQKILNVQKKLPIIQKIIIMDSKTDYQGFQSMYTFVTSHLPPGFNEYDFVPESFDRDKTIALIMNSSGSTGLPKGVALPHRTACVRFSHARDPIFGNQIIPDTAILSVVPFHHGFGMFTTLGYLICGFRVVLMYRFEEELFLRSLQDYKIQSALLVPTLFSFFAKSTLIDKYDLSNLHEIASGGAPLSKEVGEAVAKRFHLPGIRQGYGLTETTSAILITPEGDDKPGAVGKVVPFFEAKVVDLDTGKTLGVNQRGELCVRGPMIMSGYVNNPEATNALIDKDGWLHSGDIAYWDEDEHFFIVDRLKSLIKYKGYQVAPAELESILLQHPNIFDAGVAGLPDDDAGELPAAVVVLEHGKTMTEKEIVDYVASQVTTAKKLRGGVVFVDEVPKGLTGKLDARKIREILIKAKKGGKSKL
Sequence of Peroxisome proliferator-activated receptor gamma/Nuclear receptor coactivator 3 (P37231 whole entry): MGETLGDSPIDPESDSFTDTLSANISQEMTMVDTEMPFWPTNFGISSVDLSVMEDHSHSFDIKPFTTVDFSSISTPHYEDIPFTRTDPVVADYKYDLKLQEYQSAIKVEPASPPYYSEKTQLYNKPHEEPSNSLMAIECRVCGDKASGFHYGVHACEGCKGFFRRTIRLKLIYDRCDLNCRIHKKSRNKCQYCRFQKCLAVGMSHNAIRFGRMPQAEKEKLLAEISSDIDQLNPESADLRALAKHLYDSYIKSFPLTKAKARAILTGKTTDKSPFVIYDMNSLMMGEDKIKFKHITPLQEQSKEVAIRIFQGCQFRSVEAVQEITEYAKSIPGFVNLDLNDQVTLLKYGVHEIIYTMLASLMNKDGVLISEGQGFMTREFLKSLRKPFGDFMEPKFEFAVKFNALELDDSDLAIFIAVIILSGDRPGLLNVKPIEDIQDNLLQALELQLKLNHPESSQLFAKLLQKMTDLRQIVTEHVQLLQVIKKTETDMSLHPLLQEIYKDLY
Sequence of Peroxisome proliferator-activated receptor gamma/Nuclear receptor coactivator 3 (Q9Y6Q9 whole entry, further chain): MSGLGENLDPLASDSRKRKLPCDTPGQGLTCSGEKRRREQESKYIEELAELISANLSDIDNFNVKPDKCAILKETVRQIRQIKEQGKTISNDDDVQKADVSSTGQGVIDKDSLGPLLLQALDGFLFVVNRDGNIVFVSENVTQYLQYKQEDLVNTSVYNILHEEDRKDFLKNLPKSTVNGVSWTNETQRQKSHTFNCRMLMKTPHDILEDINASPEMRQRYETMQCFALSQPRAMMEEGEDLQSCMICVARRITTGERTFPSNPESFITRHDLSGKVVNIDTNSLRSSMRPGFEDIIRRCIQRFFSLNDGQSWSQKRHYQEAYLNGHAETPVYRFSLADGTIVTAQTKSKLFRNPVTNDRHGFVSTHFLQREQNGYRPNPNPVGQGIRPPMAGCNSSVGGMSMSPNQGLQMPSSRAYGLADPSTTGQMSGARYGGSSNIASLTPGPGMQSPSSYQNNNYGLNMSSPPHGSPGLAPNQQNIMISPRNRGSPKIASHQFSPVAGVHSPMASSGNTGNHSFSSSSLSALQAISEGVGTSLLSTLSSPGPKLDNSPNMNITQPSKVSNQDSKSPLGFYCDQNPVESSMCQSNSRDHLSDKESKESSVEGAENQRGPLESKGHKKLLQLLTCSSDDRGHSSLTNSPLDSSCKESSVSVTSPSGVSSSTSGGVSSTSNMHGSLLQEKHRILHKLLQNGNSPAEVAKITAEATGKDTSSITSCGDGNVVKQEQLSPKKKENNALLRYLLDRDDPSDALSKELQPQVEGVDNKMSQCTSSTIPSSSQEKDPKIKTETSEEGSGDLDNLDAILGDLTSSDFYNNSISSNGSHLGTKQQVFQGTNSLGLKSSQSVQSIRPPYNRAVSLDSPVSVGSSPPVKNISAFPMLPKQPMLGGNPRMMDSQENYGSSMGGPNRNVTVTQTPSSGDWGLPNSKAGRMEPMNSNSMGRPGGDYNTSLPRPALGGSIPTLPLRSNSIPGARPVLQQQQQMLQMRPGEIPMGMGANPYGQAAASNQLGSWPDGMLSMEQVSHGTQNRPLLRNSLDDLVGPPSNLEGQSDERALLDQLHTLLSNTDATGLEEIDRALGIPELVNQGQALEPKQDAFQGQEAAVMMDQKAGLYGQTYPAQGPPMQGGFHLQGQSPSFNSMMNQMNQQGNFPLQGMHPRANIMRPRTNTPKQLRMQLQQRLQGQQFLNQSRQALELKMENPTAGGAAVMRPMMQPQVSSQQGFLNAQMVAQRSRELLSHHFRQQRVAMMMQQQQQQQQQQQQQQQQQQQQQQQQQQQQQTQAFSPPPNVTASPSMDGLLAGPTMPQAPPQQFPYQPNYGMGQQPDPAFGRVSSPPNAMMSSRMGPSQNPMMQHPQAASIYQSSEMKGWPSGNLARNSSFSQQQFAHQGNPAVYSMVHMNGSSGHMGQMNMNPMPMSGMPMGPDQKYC

In the case of `Cc1noc(C)c1S(=O)(=O)Nc1cccc2c1O[C@H](CN(C)Cc1ccc(C(F)(F)F)cc1)[C@@H](C)CN([C@@H](C)CO)C2=O`, the AC50 in [1] is > 70 µM (inactive).

`Cc1cc2cc(CNC(=O)c3ccc(S(=O)(=O)N4CCOCC4)cc3)ccc2n1C`: the IC50 at Fibrinogen beta chain [2] is 10.6 µM (inactive); in assay [3], 49.6 µM (inactive); on Fibrinogen beta chain [5], > 83.3 µM (inactive); in [8] it was > 66 µM (inactive). The figures for the concentration giving a half-maximal response (EC50) in [4], in assay [6] and in assay [7] were 6.71 µM (active), 15.7 µM (not active) and 6.78 µM (active), respectively.

As for `CCC1=Nc2cc(C(=O)NCCCOC)ccc2Sc2ccccc21`, the EC50 is 1.07 µM (active) in the assay with BJ [9]; 0.127 µM (active) in assay [10]; 0.944 µM (active) in [11]; 8.66 µM (inconclusive) in assay [12]; 13.2 µM (active) in the assay on BJ [13]; 16.1 µM (active) in [14]. For the same compound, the values for the half-maximal effective concentration (EC50) (in [15]; in the assay on BJ [16]) were 5.01 µM (active) and 0.754 µM (inconclusive), respectively. Also, in assay [17], the AC50 is 9.95 µM (active).

With `COc1ccc2c3c([nH]c2c1)[C@H](CO)N(C(=O)Cc1ccccc1)CC31CCN(C(=O)Nc2ccccc2F)CC1`, the AC50 is 0.472 µM (active) in assay [18]; 25.2 µM (active) in assay [19]; 0.123 µM (active) in [20]; 0.208 µM (active) in assay [21]; 0.0977 µM (active) in assay [22]; 0.277 µM (active) in [23]. Also, the AC50 in [24] is > 100 µM (inactive).

On to `Cc1ccc(S(=O)(=O)N2[C@@H](c3ccccc3)C(C(=O)O)=CC[C@H]2c2ccc(Cl)cc2)cc1`, for which, in assay [25], the AC50 was > 30 µM (inactive).

As to `Clc1ccc(/C=C/c2nc3ccccc3[nH]2)c(Cl)c1`, the EC50 in [10] is 2.85 µM (inconclusive); in assay [12] it was 0.55 µM (active); in [14], 7.08 µM (active); in assay [27] it was 0.519 µM (active); in “cells”, > 67.5 µM (inactive); in assay [15], 3.15 µM (active). For the same compound, the values for the half-maximal effective concentration (EC50) in [29] and in assay [30] were 8.31 µM (active) and > 67.5 µM (inactive), respectively. Further, the IC50 in assay [26] was 5.78 µM (active); in [28], 2.85 µM (active).
